Measurements reported in the supplement of paper PMC13380429.

Experiments:
Conditions in all cases: 72 h
[1] = test system: Caco-2; experiment: cell viability relative to DMSO; higher = less toxic
[2] = test system: HepG2; experiment: as above
[3] = test system: U2OS; experiment: as above
[4] = test system: Vero E6; experiment: as above
[5] = test system: HepG2; experiment: relative viability EC50 (midpoint between 100% and the lowest measured viability); higher = less toxic
[6] = test system: Vero E6; experiment: as above
[7] = test system: Caco-2; experiment: drug sensitivity score (DSS) for viability; higher = more toxic; extreme values may be limits of the assay
[8] = test system: HepG2; experiment: as above
[9] = test system: U2OS; experiment: as above
[10] = test system: Vero E6; experiment: as above
[11] = test system: Calu-3; experiment: cell viability relative to DMSO; higher = less toxic
[12] = test system: Calu-3; experiment: relative viability EC50 (midpoint between 100% and the lowest measured viability); higher = less toxic
[13] = test system: U2OS; experiment: as above
[14] = test system: Calu-3; experiment: drug sensitivity score (DSS) for viability; higher = more toxic; extreme values may be limits of the assay

Row | SMILES | cell viability ([1]; 1 nM) [%] | cell viability ([1]; 10 nM) [%] | cell viability ([1]; 100 nM) [%] | cell viability ([1]; 1000 nM) [%] | cell viability ([1]; 10000 nM) [%] | cell viability ([2]; 1 nM) [%] | cell viability ([2]; 10 nM) [%] | cell viability ([2]; 100 nM) [%] | cell viability ([2]; 1000 nM) [%] | cell viability ([2]; 10000 nM) [%] | cell viability ([3]; 1 nM) [%] | cell viability ([3]; 10 nM) [%] | cell viability ([3]; 100 nM) [%] | cell viability ([3]; 1000 nM) [%] | cell viability ([3]; 10000 nM) [%] | cell viability ([4]; 1 nM) [%] | cell viability ([4]; 10 nM) [%] | cell viability ([4]; 100 nM) [%] | cell viability ([4]; 1000 nM) [%] | cell viability ([4]; 10000 nM) [%] | relative viability EC50 [5] [µM] | relative viability EC50 [6] [µM] | drug sensitivity score [7] | drug sensitivity score [8] | drug sensitivity score [9] | drug sensitivity score [10] | cell viability ([11]; 1 nM) [%] | cell viability ([11]; 10 nM) [%] | cell viability ([11]; 100 nM) [%] | cell viability ([11]; 1000 nM) [%] | cell viability ([11]; 10000 nM) [%] | relative viability EC50 [12] [µM] | relative viability EC50 [13] [µM] | drug sensitivity score [14]
1 | O=C(Nc1cccc(Cl)c1)Nc1ncc(CCNc2ncnc3ccsc23)s1 [SNS-314] | 92.8 | 99 | 90.4 | 85.8 | 69 | 92.8 | 96.8 | 76.3 | 67.5 | 41.6 | 98.5 | 102 | 88.2 | 90.4 | 74.8 | 103 | 103 | 86.3 | 89.9 | 93.2 | 0.315 | > 10 | 2.9 | 9.2 | 1.9 | 1.8 | – | – | – | – | – | – | – | –
2 | Cc1n[nH]c(C)c1Cc1sc2c(c1C(=O)N1C[C@H](O)CO1)c(=O)n(C)c(=O)n2CC(C)C | 91.3 | 79.3 | 77.2 | 67.4 | 69 | 97 | 108 | 95 | 98.8 | 109 | 97.8 | 92.6 | 89.4 | 86.7 | 89.7 | 89.7 | 98.7 | 92.9 | 95.7 | 101 | > 10 | > 10 | 10.2 | 0 | 1.2 | 0 | 102 | 86.3 | 99.4 | 93.3 | 99.8 | > 10 | > 10 | 0
3 | CCN(CC)CCCCNc1ncc2cc(-c3c(Cl)cccc3Cl)c(NC(=O)NC(C)(C)C)nc2n1 | 98.4 | 94.3 | 96 | 75.2 | 69.5 | 98.3 | 102 | 106 | 65.5 | 40.3 | 100 | 101 | 95.2 | 76.8 | 31.9 | 102 | 102 | 104 | 104 | 25.2 | 0.885 | 3.48 | 4.4 | 7.5 | 6.7 | 3.8 | 104 | 90 | 104 | 77.2 | 29.8 | 1.34 | 1.38 | 7.2
4 | Cc1cnc(C(=O)NCCc2ccc(S(=O)(=O)NC(=O)NC3CCCCC3)cc2)cn1 [glipizide] | – | – | – | – | – | – | – | – | – | – | – | – | – | – | – | – | – | – | – | – | – | – | – | 0 | 0 | 0 | – | – | – | – | – | – | – | 0
5 | CNC(=O)c1ccccc1Nc1cc(Nc2ccc(N3CCOCC3)cc2OC)ncc1C(F)(F)F [VS-4718] | 102 | 91.8 | 96.4 | 82.5 | 62.5 | 98.6 | 93.2 | 99.1 | 65 | 19.3 | 98.5 | 94.2 | 95.2 | 82.1 | 35.1 | 103 | 101 | 85.8 | 69.2 | 54.4 | 1.12 | – | 3.6 | 9 | 6.2 | 7 | 108 | 97 | 86.4 | 68.3 | 74.5 | – | 1.5 | 6.6
6 | CN1CCN(c2c(F)cc3c(=O)c(C(=O)O)cn4c3c2SCC4)CC1 [rufloxacin] | 95.1 | 105 | 93.9 | 91.7 | 73.8 | 98.9 | 99.5 | 104 | 103 | 92.2 | 99.8 | 100 | 94.7 | 104 | 96.8 | 99.9 | 101 | 96.4 | 101 | 95.7 | > 10 | > 10 | 1.7 | 0 | 0 | 0 | 92.1 | 103 | 97.5 | 84.4 | 101 | > 10 | > 10 | 0
7 | O=C1C2CCN(CC2)C1(CO)CO [PRIMA1] | 95.1 | 91.6 | 102 | 96.3 | 66.9 | 94.5 | 97.6 | 81 | 97.9 | 104 | 98.8 | 95.7 | 101 | 98.1 | 70 | 87 | 92.6 | 89.6 | 94.2 | 99.5 | > 10 | > 10 | 2.1 | 0 | 1.6 | 0 | 105 | 99 | 103 | 87.6 | 95.7 | > 10 | – | 0.6
8 | Nc1nc(Nc2ccc(S(N)(=O)=O)cc2)nn1C(=O)c1c(F)cccc1F | 107 | 100 | 101 | 106 | 63.7 | 103 | 103 | 92.8 | 76.7 | 8.9 | 102 | 102 | 100 | 104 | 2.1 | 107 | 104 | 106 | 99.1 | 68.7 | 1.53 | – | 1.4 | 8.6 | 5.1 | 1.5 | 102 | 97.1 | 98.1 | 127 | 33.2 | 4.32 | 3.41 | 2.6
